The test relates to T. cruzi of diverse genetic types (DTUs). In words: In vitro susceptibility of T. cruzi strains of diverse genetic types (DTUs). The format is cell-based. The following applies: Trypanosoma cruzi. Here is the method:
C57BL/6J mice were purchased from The Jackson Laboratory (Bar Harbor, ME), and B6.129S7-Ifngtm1Ts/J (IFN-gamma deficient) were bred in-house at the University of Georgia Animal Facility. The SKH-1 “hairless” mice backcrossed to C57BL/6 were a gift from Dr. Lisa DeLouise (University of Rochester). All the animals were maintained in the University of Georgia Animal Facility under specific pathogen–free conditions at 22°C, 50% humidity and in a 12:12 hs light:dark cycle. Male and female mice of 6 to 9 weeks of age were used. All mouse experiments were carried out in strict accordance with the Public Health Service Policy on Humane Care and Use of Laboratory Animals and Association for Assessment and Accreditation of Laboratory Animal Care accreditation guidelines. The protocol was approved by the University of Georgia Institutional Animal Care and Use Committee. […] Parasites genotypes were determined as previously described.
The in vitro anti-T. cruzi amastiogote activity assay was performed and optimized based on the protocol described previously. The change in tdTomato fluorescence intensity was determined as a measurement of growth over 72 hours of culture. For assaying drug effects on extracellular amastigotes, trypomastigotes were collected from infected Vero cell cultures and converted in acidic media as previously described. Amastigotes (50,000/well) were incubated with 2-fold serial dilutions of compounds for 48 hours. The ATP production was used as an indication of growth in this case, and was measured by ATPlite Luminescence ATP Detection Assay System (PerkinElmer). Both fluorescence and luminescence were read using a BioTek Synergy Hybrid Multi-Mode reader equipped with the software Gene5 v 2.0 (BioTek). The dose-response curve was generated by […] analysis with GraphPad Prism v9.4.0 (GraphPad Software).

Data on one compound can be found in article PMC9519446, “Discovery of an Orally Active Benzoxaborole Prodrug Effective in the Treatment of Chagas Disease in Non-human Primates” (Nature microbiology, 2022).

For `Cc1c(C(=O)NC(C(=O)OCc2ccc(F)c(F)c2)C(C)C)ccc2c1B(O)OC2` (stereo not shown) [AN14353], the half-maximal inhibitory concentration (IC50) (Strain 20290, DTU TcI) came out at 3 nM; the half-maximal inhibitory concentration (IC50) (Strain 20392, DTU TcIV) was determined as 5 nM; the IC50 (Strain ARC0704, DTU TcI) was 3 nM; the IC50 (Strain CL, DTU TcVI) turned out to be 6 nM; the concentration for half-maximal inhibition (IC50) (Strain Colombiana, DTU TcI) was determined as 7 nM; the concentration for half-maximal inhibition (IC50) (Strain M5631, DTU TcIII) was found to be 1 nM. Besides, the IC50 by setting is: (Strain Montalvania, DTU TcI) 1 nM; (Strain Tul8, DTU TcII) 1 nM. Also, the IC90 (Strain 20290, DTU TcI) is 5 nM; the IC90 (Strain 20392, DTU TcIV) was found to be 10 nM; the IC90 (Strain ARC0704, DTU TcI) turned out to be 7 nM; the IC90 (Strain CL, DTU TcVI) was found to be 18 nM; the IC90 (Strain Colombiana, DTU TcI) was determined as 10 nM; the IC90 (Strain M5631, DTU TcIII) was found to be 3 nM. Besides, the IC90 by setting is: (Strain Montalvania, DTU TcI) 2 nM; (Strain Tul8, DTU TcII) 2 nM.
